Laboratory results taken from patent publication US20220409620A1, “REDUCING IMMUNOGENICITY TO PEGLOTICASE” (Horizon Pharma Rheumatology LLC, priority 2016, published 2022).

Test system: adult patients with uncontrolled gout
Test: Serum uric acid (sUA) levels and sUA responder rate, open-label study of pegloticase with MTX (MIRROR OL)
Type: in vivo, human
Conditions: for Serum Uric Acid Change from Methotrexate Baseline, Mean (SD) / Serum Uric Acid Change from Methotrexate Baseline, Median / Serum Uric Acid, Observed, Mean (SD) / Serum Uric Acid, Observed, Median / sUA <6 mg/dL, n (%): mITT
Method: The primary objective is to estimate the response rate during Month 6 (Weeks 20, 22, and 24), as measured by the sustained normalization of serum uric acid (SUA) to <6 mg/dL for at least 80% of the time during Month 6 in subjects receiving KXX with MTX.
The primary efficacy outcome endpoint is the sustained normalization of SUA to <6 mg/dL for at least 80% of the time during month 6 (weeks 20, 22, and 24) in subjects receiving KXX with MTX. […] Participants who achieve this endpoint were classified as “responders.” Serum uric acid (SUA) responders may also be defined as participants achieving and maintaining SUA <6 mg/dL for at least 80% of the time during Month 6 (Weeks 20, 22, and 24).
Blood samples may be collected prior to each pegloticase infusion for measurement of SUA levels using the Beckman Coulter AU System Uric Acid procedure. Participants were declared “non-responders” if there were SUA measures >6 mg/dL at 2 consecutive study visits beginning with the week 2 visit. […] This assumption and subsequent discontinuation of pegloticase was consistent with the protocol of large phase III randomized controlled trials and the product label. A formal stopping rule was 2 occasions of SUA levels of greater than 6 mg/dL.
Clinical Chemistry—Blood samples were collected prior to each pegloticase infusion for measurement of SUA levels (primary efficacy parameter) using the Beckman Coulter AU System Uric Acid procedure. In this procedure uric acid is converted to hydrogen peroxide. Hydrogen peroxide reacts with reagent to produce a chromophore which is read bichromatically at 660/800 nm. The amount of dye formed is proportional to the uric acid concentration in the sample.
Serum samples for measurement of SUA levels were collected at the Screening Visit, the Week −4 Visit (prior to the first dose of MTX), and the Week −2 Visit during the MTX Run-in Period; within 48 hours prior to each pegloticase infusion and after the end of each pegloticase infusion prior to discharge from the site during the Pegloticase+IMM Period; at the non-infusion Week 52/End of Study/Early Termination Visits and at the Post Treatment 3 and 6 Month Follow-up Visits. Additional serum samples for SUA levels were collected at optional non-infusion (Frequent Sampling) Visits at Weeks 1 and 7. […] Subjects with SUA level >6 mg/dL at 2 consecutive visits beginning at Week 2 visit discontinued treatment, completed the End of Pegloticase Infusion Visit procedures within 2 weeks and continued the subject visits according to the protocol (without treatment).
Efficacy analyses were performed using the modified intention-to-treat (mITT) population, defined as all enrolled subjects who received ≥1 dose of pegloticase. The proportion of Month 6 responders was summarized, along with a 95% confidence interval for the proportion. The proportion of Month 3 and overall (Months 3 and 6 combined) responders was analyzed similarly.
A subject was declared a non-responder if the subject had SUA level >6 mg/dL at 2 consecutive study visits beginning with the Week 2 Visit. In addition, a subject who withdraws from study treatment for any reason after the first dose of pegloticase in the KXX+MTX Period and prior to Month 6 (for the primary endpoint) or Month 3 (for the secondary endpoint) was considered a non-responder if SUA values were not collected at the planned time points.
Patients were administered oral MTX (15 mg/week) and folate (1 mg/day) 4 weeks prior to the first pegloticase infusion (Day 1) and throughout the pegloticase treatment period. Blood was drawn prior to each infusion to measure sUA level, monitor clinical parameters, and examine for ADA development. All patients followed typical IR prophylaxis protocols (fexofenadine one day before and the morning of each infusion and acetaminophen and IV corticosteroid the morning of each infusion).

[1] = Day 1 - Pre-Infusion (after MTX Run-in)

CN(Cc1cnc2nc(N)nc(N)c2n1)c1ccc(C(=O)N[C@@H](CCC(=O)O)C(=O)O)cc1 [MTX, methotrexate]
mean sUA (Day 1, after 4-week MTX run-in, before first pegloticase infusion, 14 patients): 9.2 ± 2.5 mg/dL
Serum Uric Acid Change from Methotrexate Baseline, Mean (SD) [1]: 0.25 (1.283) mg/dL
Serum Uric Acid Change from Methotrexate Baseline, Median [1]: -0.25 mg/dL
Serum Uric Acid, Observed, Mean (SD) [1]: 9.16 (2.486) mg/dL
Serum Uric Acid, Observed, Median [1]: 9.00 mg/dL
sUA <6 mg/dL, n (%) [1]: 1 (7.1%)
Serum Uric Acid Change from Methotrexate Baseline, Mean (SD) (Week - 2 (MTX Run-in)): 0.54 (0.839) mg/dL
Serum Uric Acid Change from Methotrexate Baseline, Median (Week - 2 (MTX Run-in)): 0.50 mg/dL
Serum Uric Acid, Observed, Mean (SD) (Week - 2 (MTX Run-in)): 9.45 (2.211) mg/dL
Serum Uric Acid, Observed, Median (Week - 2 (MTX Run-in)): 9.30 mg/dL
sUA <6 mg/dL, n (%) (Week - 2 (MTX Run-in)): 1 (7.1%)
